From patent US5821353A, “DNA encoding 1,3 beta-D glucan synthase subunits” (Merck & Co., Inc., priority 1996, dated 1998)
≈ marks a conversion by molar mass, not a printed value.

Columns and labels:
[1] = test system: S. cerevisiae MY2144 (fks 1-3); assay: MIC, growth inhibition; assay type: cell-based, Saccharomyces cerevisiae; settings: Saccharomyces cerevisiae, 24 h
Experimental: (§1) Liquid broth microdilution assay
(§2) To quantitate the sensitivity of a particular strain of S. cerevisiae to a compound such as FK506, L-733,560, or nikkomycin Z, the following procedure was followed:
(§3) Dissolve drug of interest at 4× the desired initial concentration. For L-733,560, a 64 mcg/ml solution in sterile SD is prepared. Aliquot 75 mcL of the drug suspension into column 3. Using a multichannel pipettor, transfer 75 mcL from column 3 into column 4, pipet up and down three times to mix, and then transfer 75 mcL from column 4 into column 5. Repeat the serial dilution until column 12 is reached; after mixing, discard 75 mcL to waste.
(§4) Inoculate each strain in a given row by adding 75 mcL of the inoculum into columns 2 to 12. […] Column 2 serves as the no-drug or 100% growth control. The plate is then incubated overnight at 30° C. without shaking.
(§5) After approximately 24 hours of incubation, gently agitate the plate to resuspend the cells and read the absorbance at 600 nm wavelength. The % control growth for any given well can be calculated by dividing the absorbance value for that well by the value from column 2 in the same row. If this is done for each column, the data can be plotted as "Percent control growth" vs. "Drug concentration". The resulting dose-response curve can be used to compare the drug sensitivities of various strains.
(§6) The data in the following table are the minimum concentration of the various drugs required to inhibit the growth of each the mutants and their parent X2180-1A.

S. cerevisiae MY2145 = assay: MIC, growth inhibition; assay type: cell-based, Saccharomyces cerevisiae; settings: Saccharomyces cerevisiae, MY2145, 24 h; read-out: MIC
Experimental: as §1, §2, §3, §4, §5, §6

S. cerevisiae X2180-1A = assay: MIC, growth inhibition; assay type: cell-based, Saccharomyces cerevisiae; settings: Saccharomyces cerevisiae, X21801A, 24 h, minimum concentration required to inhibit growth, read-out: MIC
Experimental: as §1, §2, §3, §4, §5, §6

[2] = test system: S. cerevisiae MS14 mutant; assay: disc diffusion drug resistance/sensitivity test; assay type: cell-based, Saccharomyces cerevisiae
Experimental: Cells of the yeast strains MY2144 and MY2145 carrying the respective MS10 and MS14 mutations were grown overnight in YPAD and SC media. From the overnight cultures, cells were diluted 1:10 in the same media and allowed to further grow for 4-6 hrs. The drug resistance/sensitivity tests were conducted by the disc diffusion assay on plates containing 20 ml of solid YPAD or SC media and 3×10^6 cells. The cells were added to premelted media that was cooled to 50° C. before pouring onto plates. Sterile filter discs containing different drugs were placed on the surface of the plates followed by incubation at 28° C. for 1-2 days. Sizes of the zones of growth inhibition were measured as an indication of relative drug resistance/sensitivity. The MS14 mutant is supersensitive to the chitin synthesis inhibitor nikkomycin Z and resistant to the echinocandin L-733-560.

[3] = test system: chitin synthase from MY2144 (fks 1-3); assay: chitin synthase assay, membrane preparation; assay type: biochemical, Saccharomyces cerevisiae; settings: membranes of MY2144 (fks 1-3)
Experimental: (§7) 125 mcg of the above extracts were trypsin activated and mixed with an equal volume (50 mcL) chitin synthase reaction cocktail, which included 0.5M Tris, pH 7.5, 40 mM MgCl, 320 microM GlcNAc, ^14 C-UDP-GlcNAc substrate mix, and 0.8% digitonin. After 30 minutes of incubation at 30° C., the incorporated ^14 C-[…] was precipitated with 10% trichloroacetic acid, collected onto Whatman glass microfiber GF/A disks and counted.
(§8) Crude enzyme preparations associated with cell membranes were tested for glucan and chitin synthesis activities. The sensitivity of the mutant 1,3-beta-D glucan synthase to L-733,560 and papulacandin was tested along with the sensitivity of the chitin synthases to nikkomycin Z.
(§9) The chitin synthase is not affected in its sensitivity to nikkomycin Z. The data in the following table show the IC50 s for the glucan synthase inhibitors (L-733,560 and papulacandin) and the chitin synthase inhibitor (nikkomycin Z) in 1,3-beta-D glucan synthase and chitin synthase assays, respectively. Equal amounts of membrane proteins were used to prime each reaction.

[4] = test system: chitin synthase from MY2145 (fks 1-4); assay: chitin synthase assay, membrane preparation; assay type: biochemical, Saccharomyces cerevisiae; settings: membranes of MY2145 (fks 1-4)
Experimental: as §7, §8, §9

[5] = test system: chitin synthase from X2180-1A; assay: chitin synthase assay, membrane preparation; assay type: biochemical, Saccharomyces cerevisiae; settings: membranes of X2180-1A
Experimental: as §7, §8, §9

C[C@@H]([C@H](N)C(=O)N[C@H](C(=O)O)[C@H]1O[C@@H](n2ccc(=O)[nH]c2=O)[C@H](O)[C@@H]1O)[C@H](O)c1ccc(O)cn1 [Nikkomycin Z, nikkomycin Z]
MIC [1]: > 100 µg/mL
MIC (S. cerevisiae MY2145): 0.2 µg/mL (≈ 0.404 µM)
MIC (S. cerevisiae X2180-1A): > 100 µg/mL
drug resistance/sensitivity phenotype [2]: supersensitive
IC50 [3]: 0.60 µg/mL (≈ 1.21 µM)
IC50 [4]: 0.64 µg/mL (≈ 1.29 µM)
IC50 [5]: 0.74 µg/mL (≈ 1.49 µM)
